Reference: patent US5858684A, “Method of screening calcium receptor-active molecules” (priority 1995, dated 1999)
“Also recorded” adds a separate entry of the source. Like-named read-outs stand apart in the source and are kept apart here.

Legend:
[1] = system: osteoclast calcium receptor; assay: increase in [Ca2+]i in indo-1-loaded rat osteoclasts; format: cell-based
[2] = target: T1, calcium receptor expressed from bovine parathyroid cell mRNA in Xenopus oocytes (Bos taurus, UniProt P35384); assay: Cl- current in Xenopus oocytes injected with bovine parathyroid mRNA; format: cell-based; conditions: for oscillatory increases in Cl- current (words): bovine parathyroid mRNA
T1 sequence (P35384 20-1085): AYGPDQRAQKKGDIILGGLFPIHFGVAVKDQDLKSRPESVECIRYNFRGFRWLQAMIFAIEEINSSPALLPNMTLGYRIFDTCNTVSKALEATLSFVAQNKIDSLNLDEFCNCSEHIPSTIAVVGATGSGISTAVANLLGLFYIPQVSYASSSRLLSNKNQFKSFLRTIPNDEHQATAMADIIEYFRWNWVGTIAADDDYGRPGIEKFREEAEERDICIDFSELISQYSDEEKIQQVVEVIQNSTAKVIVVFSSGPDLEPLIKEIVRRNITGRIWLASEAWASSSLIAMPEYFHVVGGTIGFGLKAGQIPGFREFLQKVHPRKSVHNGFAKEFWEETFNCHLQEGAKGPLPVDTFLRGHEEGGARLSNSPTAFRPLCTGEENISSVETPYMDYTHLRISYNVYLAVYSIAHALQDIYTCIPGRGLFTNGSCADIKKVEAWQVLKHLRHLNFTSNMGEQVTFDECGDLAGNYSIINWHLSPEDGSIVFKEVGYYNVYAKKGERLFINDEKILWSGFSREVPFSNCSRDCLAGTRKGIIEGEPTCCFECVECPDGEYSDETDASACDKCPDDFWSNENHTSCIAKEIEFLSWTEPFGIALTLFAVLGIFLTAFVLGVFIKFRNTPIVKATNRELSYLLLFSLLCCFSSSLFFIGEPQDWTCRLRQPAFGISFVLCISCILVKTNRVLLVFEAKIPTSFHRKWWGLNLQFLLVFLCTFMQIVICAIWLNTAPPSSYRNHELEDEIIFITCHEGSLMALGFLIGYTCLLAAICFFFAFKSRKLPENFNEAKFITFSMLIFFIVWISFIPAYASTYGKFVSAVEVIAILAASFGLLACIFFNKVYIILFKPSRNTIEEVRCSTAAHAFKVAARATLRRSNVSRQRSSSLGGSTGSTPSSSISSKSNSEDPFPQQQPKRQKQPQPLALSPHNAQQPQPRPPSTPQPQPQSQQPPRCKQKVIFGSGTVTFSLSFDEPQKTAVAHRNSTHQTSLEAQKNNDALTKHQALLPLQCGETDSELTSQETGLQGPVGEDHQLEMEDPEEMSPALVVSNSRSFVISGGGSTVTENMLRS
Description: (§1) Glass capillary tubes (1 mm diameter) were pulled to a fine tip and manually broken to achieve a tip diameter of about 15 μmeters. A droplet of mRNA (1 ng/nl in diethylpyrocarbonate (DEPC)-treated water) was placed onto […]® and drawn into the capillary tube by suction. The capillary tube was then connected to a picospritzer (WPI Instruments) and the volume of the air-pulsed droplets adjusted to deliver 50 ng of mRNA (typically 50 nl). A 35-mm culture dish with a patch of nylon stocking fixed to the bottom was used to secure the oocytes during injection of mRNA into the vegetal pole. The injected oocytes were placed into a 35-mm culture dish containing MBS, 100 μg/ml penicillin and 100 μg/ml streptomycin and incubated at 18° C. for 3 days.
(§2) Following incubation, an oocyte was placed into a 100-μl plastic chamber and superfused with MBS at a flow rate of 0.5 ml/min using a peristaltic pump. Test molecules or inorganic polycations were added by rapidly moving the tubing into different buffers. Recording and current-passing electrodes were constructed from thin-wall capillary tubing pulled to a resistance of 1-3 Mohms and filled with 3M KCl. […] Currents were recorded directly onto a strip chart recorder.

[3] = target: T2, C-cell calcium receptor (Rattus norvegicus, UniProt P48442); format: cell-based; parameters: Neoplastic C-cells derived from a rat medullary thyroid carcinoma (rMTC 6-23); host or cells: rMTC 6-23; conditions: rMTC 6-23 cells, fura-2; inactive = no increase in cytosolic Ca2+ at 1-5 mM
T2 sequence (P48442 20-1079): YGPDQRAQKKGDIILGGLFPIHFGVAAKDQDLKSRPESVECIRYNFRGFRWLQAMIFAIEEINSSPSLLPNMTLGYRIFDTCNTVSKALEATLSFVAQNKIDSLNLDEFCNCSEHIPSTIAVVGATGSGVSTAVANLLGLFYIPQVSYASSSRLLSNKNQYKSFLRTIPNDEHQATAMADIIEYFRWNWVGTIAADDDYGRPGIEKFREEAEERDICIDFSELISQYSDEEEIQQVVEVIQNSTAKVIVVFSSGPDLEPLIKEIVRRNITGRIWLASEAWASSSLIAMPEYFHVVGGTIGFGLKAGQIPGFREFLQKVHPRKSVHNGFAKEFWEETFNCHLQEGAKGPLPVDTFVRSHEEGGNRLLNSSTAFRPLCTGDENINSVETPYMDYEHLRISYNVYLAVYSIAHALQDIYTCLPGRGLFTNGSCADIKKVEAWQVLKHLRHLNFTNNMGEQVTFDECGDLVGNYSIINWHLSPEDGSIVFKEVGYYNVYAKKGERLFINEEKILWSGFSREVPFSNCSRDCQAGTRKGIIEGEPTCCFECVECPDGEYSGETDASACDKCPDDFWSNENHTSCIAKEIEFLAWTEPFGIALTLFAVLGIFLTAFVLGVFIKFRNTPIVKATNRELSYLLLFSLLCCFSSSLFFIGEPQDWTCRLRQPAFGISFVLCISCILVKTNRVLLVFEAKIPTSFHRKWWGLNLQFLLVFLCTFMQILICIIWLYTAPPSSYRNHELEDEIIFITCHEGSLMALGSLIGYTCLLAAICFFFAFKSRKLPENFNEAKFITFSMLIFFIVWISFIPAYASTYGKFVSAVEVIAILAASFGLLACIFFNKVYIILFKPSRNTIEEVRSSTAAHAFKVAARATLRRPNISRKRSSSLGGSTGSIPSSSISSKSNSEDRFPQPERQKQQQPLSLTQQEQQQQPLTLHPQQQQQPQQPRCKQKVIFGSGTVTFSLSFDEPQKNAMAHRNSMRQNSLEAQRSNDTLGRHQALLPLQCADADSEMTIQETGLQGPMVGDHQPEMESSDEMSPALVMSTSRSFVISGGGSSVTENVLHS
Description: To assess the effects of molecular polycations on C-cells, a neoplastic cell line, derived from a rat medullary thyroid carcinoma (rMTC 6-23 cells) was used.

[4] = system: increases in [Ca2+]i elicited by extracellular Ca2+ in bovine parathyroid cells; assay: block of extracellular Ca2+-induced [Ca2+]i increase / Ca2+ influx in bovine parathyroid cells; format: cell-based
Description: (§3) The cells were then pelleted, resuspended in the same buffer, but lacking the ester, and incubated a further 15 minutes at 37° C. The cells were subsequently washed twice with PCB containing 0.5 mM CaCl2 and 0.5% BSA and maintained at room temperature (about 20° C.). Immediately before use, the cells were diluted five-fold with prewarmed 0.5 mM CaCl2 -PCB to obtain a final BSA concentration of 0.1%. The concentration of cells in the cuvette used for fluorescence recording was 1-2×10^6 /ml.
(§4) The fluorescence of indicator-loaded cells was measured at 37° C. in a spectrofluorimeter (Biomedical Instrumentation Group, University of Pennsylvania, Philadelphia, Pa.) equipped with a thermostated cuvette holder and magnetic stirrer using excitation and emission wavelengths of 340 and 510 nm, respectively. […] Leakage of dye is dependent on temperature and most occurs within the first 2 minutes after warming the cells in the cuvette. Dye leakage increases only very slowly thereafter. To correct the calibration for dye leakage, cells were placed in the cuvette and stirred at 37° C. for 2-3 minutes. The cell suspension was then removed, the cells pelleted, and the supernatant returned to a clean cuvette. […] This estimate was subtracted from the apparent Fmin.

[5] = net positive charge; format: physicochemical
[6] = system: parathyroid cell calcium receptor; format: cell-based; conditions: for EC50: screened as in Example 1
Description: For example, bovine parathyroid cells loaded with fura-2 are initially suspended in buffer containing 0.5 mM CaCl2. A test substance is added to the cuvette in a small volume (5-15 μl) and changes in the fluorescence signal are measured. Cumulative increases in the concentration of the test substance are made in the cuvette until some predetermined concentration is achieved or no further changes in fluorescence are noted.
This section describes procedures used to obtain and treat parathyroid cells from calves and humans. […] Human parathyroid glands, were obtained from patients undergoing surgical removal of parathyroid tissue for primary or uremic hyperparathyroidism (uremic HPT), and were treated similarly to bovine tissue.
Glands were trimmed of excess fat and connective tissue and then minced with fine scissors into cubes approximately 2-3 mm on a side. Dissociated parathyroid cells were prepared by collagenase digestion and then purified by centrifugation in Percoll buffer. The resultant parathyroid cell preparation was essentially devoid of red blood cells, adipocytes, and capillary tissue as assessed by phase contrast microscopy and Sudan black B staining. Dissociated and purified parathyroid cells were present as small clusters containing 5 to 20 cells.
as §3, §4
Dissociated bovine parathyroid cells were purified on gradients of Percoll and cultured overnight in serum-free medium.

[7] = target: T3, calcium receptor expressed from human parathyroid cell mRNA in Xenopus oocytes (Homo sapiens, UniProt P41180); assay: response of Xenopus oocytes injected with human parathyroid mRNA; format: cell-based; conditions: human parathyroid mRNA
T3 sequence (P41180 20-1078): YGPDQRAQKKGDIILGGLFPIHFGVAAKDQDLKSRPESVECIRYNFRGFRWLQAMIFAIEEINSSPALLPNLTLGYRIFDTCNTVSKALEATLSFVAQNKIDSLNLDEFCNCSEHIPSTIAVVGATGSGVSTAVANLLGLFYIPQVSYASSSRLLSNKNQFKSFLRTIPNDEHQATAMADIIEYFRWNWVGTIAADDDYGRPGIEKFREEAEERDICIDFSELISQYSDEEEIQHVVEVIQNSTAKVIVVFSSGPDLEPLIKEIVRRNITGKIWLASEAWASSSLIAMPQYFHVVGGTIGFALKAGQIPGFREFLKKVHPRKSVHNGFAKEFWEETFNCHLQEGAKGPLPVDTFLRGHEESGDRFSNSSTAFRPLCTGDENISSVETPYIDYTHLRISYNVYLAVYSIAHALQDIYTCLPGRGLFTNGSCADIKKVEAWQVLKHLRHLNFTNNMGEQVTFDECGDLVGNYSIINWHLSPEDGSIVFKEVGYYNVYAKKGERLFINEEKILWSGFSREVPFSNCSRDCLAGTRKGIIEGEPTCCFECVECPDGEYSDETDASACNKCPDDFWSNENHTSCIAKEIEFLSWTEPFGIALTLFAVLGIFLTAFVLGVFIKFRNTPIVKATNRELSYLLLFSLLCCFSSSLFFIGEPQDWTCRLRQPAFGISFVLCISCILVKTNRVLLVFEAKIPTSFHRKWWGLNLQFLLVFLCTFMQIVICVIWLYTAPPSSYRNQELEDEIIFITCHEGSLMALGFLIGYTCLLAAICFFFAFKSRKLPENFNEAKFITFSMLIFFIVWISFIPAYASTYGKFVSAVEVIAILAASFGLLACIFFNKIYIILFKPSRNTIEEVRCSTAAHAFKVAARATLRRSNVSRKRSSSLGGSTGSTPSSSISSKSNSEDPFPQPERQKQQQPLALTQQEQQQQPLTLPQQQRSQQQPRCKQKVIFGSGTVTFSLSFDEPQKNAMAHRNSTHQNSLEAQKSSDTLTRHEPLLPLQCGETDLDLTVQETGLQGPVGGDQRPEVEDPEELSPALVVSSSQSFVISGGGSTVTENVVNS
Description: Oocytes were injected with poly(A)^+ -enriched mRNA from human parathyroid tissue (hyperplastic glands from a case of secondary HPT).
as §1, §2
Using this screen allows one to test for an action directly on the calcium receptor. Oocytes expressing the calcium receptor also responded to several molecules active on intact parathyroid cells when screened as follows. […] This offers rather compelling evidence showing that these molecules act on the calcium receptor or on some other protein intimately associated with its function.

[8] = target: T4, bovine parathyroid cell calcium receptor (BoPCaR 1) (Bos taurus, UniProt P35384); assay: Cl- current in Xenopus oocytes expressing BoPCaR 1; format: cell-based; conditions: 1 mM extracellular Ca2+
T4 construct: Xenopus oocytes were injected with BoPCaR 1, the 5.3 Kb cDNA encoding a bovine parathyroid cell calcium receptor; expressed in transfected cells; host or cells: Xenopus laevis oocytes injected with cRNA/cDNA of BoPCaR 1
T4 sequence (P35384 20-1085): T1 sequence (P35384 20-1085)
Description: as §2
The techniques used to clone the parathyroid calcium receptor are briefly described in this example; a more complete description of the techniques is provided in preceding sections, which describe techniques which may be used to clone additional forms of the Ca^2+ -receptor from other cell types. Poly(A^+)-enriched mRNA was initially prepared from bovine parathyroid glands by extracting with guanidinium thiocyanate, centrifugation through CsCl and oligo(dT) cellulose chromatography. […] No such currents were elicited in control eggs injected with water.
These responses are mediated by the following series of biochemical events:
Xenopus oocytes were injected with BoPCaR 1, the 5.3 Kb cDNA encoding a bovine parathyroid cell calcium receptor as described in Example 25. After two to three days, Cl^- currents were examined in the oocytes using a two-electrode voltage clamp.
Xenopus oocytes were injected with BoPCaR 1 as described in Example 25. After two to three days, Cl^- currents were examined in the oocytes using two electrode voltage clamp.

[9] = system: PTH secretion from bovine parathyroid cells; assay: PTH secretion from bovine parathyroid cells; format: cell-based; conditions: bovine parathyroid cells
Description: PTH secretion was measured by first suspending cells in PCB containing 0.5 mM CaCl2 and 0.1% BSA.

[10] = target: T5, human parathyroid cells (calcium receptor) (Homo sapiens, UniProt P41180); format: cell-based; conditions: 1 μM
T5 sequence (P41180 20-1078): T3 sequence (P41180 20-1078)
Description: Human parathyroid glands, were obtained from patients undergoing surgical removal of parathyroid tissue for primary or uremic hyperparathyroidism (uremic HPT), and were treated similarly to bovine tissue.
as §3, §4

For `CC(NCCC(c1ccccc1)c1ccccc1)c1ccccc1` (racemic) [Fendiline, diphenylpropyl-α-phenethylamine], the EC50 ([1]; rat osteoclasts, indo-1, inactive = no increase in cytosolic Ca2+ at 1-5 mM, read-out: EC50 OSTEOCLAST (Table 6)) was 200 µM, the “concentration eliciting oscillatory increases in Cl- current” value [2] was 100 µM and the “oscillatory increases in Cl- current (words)” value [2] was “evokes the mobilization of intracellular”. The “oscillatory increases in Cl- current (words)” value ([2]; listed as fendiline) was “evokes oscillatory increases” and the EC50 [3] was greater than 100 µM.

In the case of `NCCCCCCCCCCCCN` [1,12-diaminododecane (DADD), 1,12-diaminododecane], the “effect of pretreatment on increases in [Ca2+]i elicited by extracellular Ca2+” value ([4]; 100 to 1000 μM) is reported as “depresses steady-state, but not transient increases”, the “fall in [Ca2+]i” value ([4]; 100 to 1000 μM, buffer containing 2 mM CaCl2) is reported as “prompt fall” and the “Net (+) Charge (Table 1)” value [5] is reported as “+2”.

In the case of `C1CNCCNCCNCCNCCNCCN1` [Hexacyclen, 1,4,7,10,13,16-hexaaza-cyclooctadecane], the “relative potency (fold)” value ([6]; hexacyclen vs NPS 383) is reported as 7 fold, the “relative potency (fold)” value ([6]; hexacyclen vs […]) is reported as 25 fold and the EC50 ([6]; parathyroid cells, read-out: EC50 (Table 1)) is reported as 20 µM. The “Net (+) Charge (Table 1)” value [5] was “+6” and the “concentration effective in oocytes” value [7] was 135 µM.

In the case of `NCCCNCCCCNCCCNCCCN(O)CCCNC(=O)Cc1c[nH]c2cccc(O)c12` [NPS 015], the “EC50 C-CELL (Table 6)” value [3] is reported as “inactive”.

In the case of `NCCCNCCCCNCCCNCCCN(O)CCCNC(=O)Cc1c[nH]c2ccccc12` [NPS 017], the “EC50 OSTEOCLAST (Table 6)” value ([1]; rat osteoclasts, indo-1, inactive = no increase in cytosolic Ca2+ at 1-5 mM) is reported as “inactive” and the “Cl- current” value [8] is reported as “oscillatory increases”.

For `CC(Cc1ccccc1)NCCC(c1ccccc1)c1ccccc1` (centres unmarked) [Prenylamine], the “increase in [Ca2+]i (words)” value ([1]; rat osteoclasts) was “mobilization”.

For `NCCCCNCCCN` [Spermidine, spermidine], the EC50 ([6]; read-out: EC50 (Table 3)) was 2000 µM, the “Net (+) Charge (Table 1)” value [5] was “+3” and the “increase in [Ca2+]i in osteoclasts, overall” value [1] was “none of these caused any large increase”.

For `NCCCNCCCCNCCCN` [Spermine, spermine], the “inhibition of PTH secretion” value [9] was “inhibits PTH secretion; also recorded: inhibited PTH secretion to the same extent”.

For `CCN(CC)CCCCCCCCOC(=O)c1cc(OC)c(OC)c(OC)c1` [TMB-8], the “block of influx of extracellular Ca2+” value ([4]; 100 μM) was “blocked the influx of extracellular”, the “potentiation of mobilization of intracellular Ca2+ elicited by extracellular divalent cations” value ([6]; 100 μM) was “potentiated the mobilization of intracellular; also recorded: potentiated transient increases” and the “change in [Ca2+]i” value ([6]; 100 μM, 0.5 mM extracellular Ca2+) was “evoked no change”. The “increase in [Ca2+]i at intermediate extracellular Ca2+” value ([6]; 100 μM, 1-[…] extracellular Ca2+) was “small, but robust increase”.

For `COCCOC(=O)C1=C(C)NC(C)=C(C(=O)OC(C)C)C1c1cccc([N+](=O)[O-])c1` (centres unmarked) [nimodipine], the “effect on Mg2+-elicited sustained [Ca2+]i increase” value [10] was “not affected”.
